ChEMBL document CHEMBL1137330, “Synthesis and pharmacokinetics of valopicitabine (NM283), an efficient prodrug of the potent anti-HCV agent 2'-C-methylcytidine” (J Med Chem, 2006)
≈ marks a conversion by molar mass, not a printed value. Values belong to the compound of their own block, whether it stands above or below them.

Experiments:
[1] = Biliary excretion in bile duct cannulated Sprague-Dawley rat at 100 mg/kg, po after 72 hrs; assay type: ADME, organism-based; parameters: dose 100 mg/kg, route oral; conditions: read-out: Activity
[2] = Urinary excretion in bile duct cannulated Sprague-Dawley rat at 100 mg/kg, po after 72 hrs; assay type: ADME, organism-based; parameters: dose 100 mg/kg, route oral; conditions: urine, read-out: Activity
[3] = Fecal excretion in intact Sprague-Dawley rat at 100 mg/kg, po after 168 hrs; assay type: ADME, organism-based; parameters: dose 100 mg/kg, route oral; conditions: faeces, read-out: Activity
Rattus norvegicus [4] = assay: Urinary excretion in intact Sprague-Dawley rat at 100 mg/kg, po after 168 hrs; assay type: ADME, organism-based, Urine; parameters: dose 100 mg/kg, route oral; conditions: in vivo
[5] = Fecal excretion in bile duct cannulated Sprague-Dawley rat at 100 mg/kg, po after 72 hrs; assay type: ADME, organism-based; parameters: dose 100 mg/kg, route oral; conditions: faeces, read-out: Activity
Rattus norvegicus [6] = assay: (§1) AUC (0-t) in jugular vein cannulated Sprague-Dawley rat at 100 mg/kg, po; assay type: ADME, organism-based, Plasma; parameters: dose 100 mg/kg, route oral; conditions: in vivo
Rattus norvegicus [7] = assay: Cmax in jugular vein cannulated Sprague-Dawley rat at 100 mg/kg, po administered as prodrug; assay type: ADME, organism-based; parameters: dose 100 mg/kg, route oral; conditions: in vivo
[8] = Chemical stability at pH 1.2; assay type: physicochemical; conditions: buffer
[9] = Distribution coefficient, log P of the compound; assay type: physicochemical; conditions: octanol/water
Rattus norvegicus [10] = assay: Apparent oral bioavailability in jugular vein cannulated Sprague-Dawley rat at 100 mg/kg, po administered as prodrug; assay type: ADME, organism-based; conditions: in vivo
[11] = Chemical stability at pH 7.2; assay type: physicochemical; conditions: buffer
Rattus norvegicus [12] = assay: AUC(0-t) in jugular vein cannulated Sprague-Dawley rat at 100 mg/kg, po administered as prodrug; assay type: ADME, organism-based, Plasma; parameters: dose 100 mg/kg, route oral; conditions: in vivo
[13] = AUC in Sprague-Dawley rat after 15 days at 60 mg/kg/day, iv; assay type: ADME, organism-based; parameters: route intravenous; conditions: plasma
[14] = Protein binding in rat plasma at 20 uM; assay type: ADME, cell-free; conditions: read-out: PPB (converted)
Rattus norvegicus [15] = assay: Tmax in jugular vein cannulated Sprague-Dawley rat at 100 mg/kg, po administered as prodrug; assay type: ADME, organism-based; parameters: dose 100 mg/kg, route oral; conditions: in vivo
[16] = Chemical stability at pH 4.5; assay type: physicochemical; conditions: buffer
[17] = Cmax in Sprague-Dawley rat after 15 days at 60 mg/kg/day, iv; assay type: ADME, organism-based; parameters: dose 60 mg/kg/day, route intravenous; conditions: in vivo
Rattus norvegicus [18] = assay: Terminal half life in jugular vein cannulated Sprague-Dawley rat at 100 mg/kg, po administered as prodrug; assay type: ADME, organism-based; parameters: dose 100 mg/kg, route oral; conditions: in vivo
[19] = Aqueous solubility of the compound; assay type: physicochemical
Plasma = assay: Drug level in jugular vein cannulated Sprague-Dawley rat plasma after 12 hrs; assay type: ADME, cell-free
Homo sapiens [20] = species: Homo sapiens; assay: Conversion of prodrug to 2'-C-methylcytidine in human liver cytosol; assay type: ADME, organism-based
[21] = Half life at pH 7.2; assay type: ADME; conditions: buffer
Homo sapiens [22] = species: Homo sapiens; assay: Half life in human plasma
[23] = Half life in human whole blood; assay type: ADME, organism-based
[24] = as §1; assay type: ADME, organism-based, Plasma; parameters: dose 100 mg/kg, route oral; conditions: Sprague-Dawley, plasma
[25] = Tmax in jugular vein cannulated Sprague-Dawley rat at 100 mg/kg, po; assay type: ADME, organism-based; parameters: dose 100 mg/kg, route oral; conditions: in vivo
[26] = Cmax in jugular vein cannulated Sprague-Dawley rat at 100 mg/kg, po; assay type: ADME, organism-based; parameters: dose 100 mg/kg, route oral; conditions: in vivo
[27] = Half life at pH 4.5; assay type: ADME; conditions: buffer
[28] = Terminal half life in jugular vein cannulated Sprague-Dawley rat at 100 mg/kg, po; assay type: ADME, organism-based; parameters: dose 100 mg/kg, route oral; conditions: in vivo, read-out: beta t1/2 (converted)
Homo sapiens [29] = species: Homo sapiens; assay: Conversion of prodrug to 2'-C-methylcytidine in human liver S9 fraction; assay type: ADME, organism-based

dose excreted at 72 h [1]: 0.3%
dose excreted at 72 h [2]: 29.8%
dose excreted at 168 h [3]: 63.5%
Activity (Rattus norvegicus [4]): 31.9%
dose excreted at 72 h [5]: 65.9%
SMILES: CC(C)C(N)C(=O)O[C@H]1[C@H](CO)O[C@H](n2ccc(N)nc2=O)[14C@@]1(C)O.Cl.Cl (stereo partly drawn)

AUC (Rattus norvegicus [6]): < 0.1 µg/mL
SMILES: C[C@@]1(O)[C@@H](n2ccc(=O)[nH]c2=O)O[C@@H](CO)[C@@H]1O

Cmax (Rattus norvegicus [7]): 6120 ng/mL
Stability [8]: Stable
logP [9]: -0.965
F (Rattus norvegicus [10]): 33.6%
Stability [11]: Stable
AUC (Rattus norvegicus [12]): 30000 ng·h/mL
AUC at 360 h [13]: 74400 ng·h/mL
fraction unbound at 20 µM [14]: 0.95
Tmax (Rattus norvegicus [15]): 2 h
Stability [16]: Stable
Cmax [17]: 75600 ng/mL
beta t1/2 (Rattus norvegicus [18]): 7.1 h
solubility [19]: 32 mg/mL (≈ 124 mM)
SMILES: C[C@@]1(O)[C@H](O)[C@@H](CO)O[C@H]1n1ccc(N)nc1=O

Activity (Plasma): Not Active
Activity (Homo sapiens [20]): 30%
half-life [21]: 3.9 h
half-life (Homo sapiens [22]): 2.17 h
half-life [23]: 0.667 h
logP [9]: -1.34
AUC(0-t) [24]: 8950 ng·h/mL
Tmax [25]: 1 h
Cmax [26]: 3620 ng/mL
fraction unbound at 20 µM [14]: 0.93
half-life [27]: 146 h
half-life [28]: 0.64 h
Activity (Homo sapiens [29]): 30%
solubility [19]: 423 mg/mL
SMILES: CC(C)[C@H](N)C(=O)O[C@@H]1[C@@H](CO)O[C@@H](n2ccc(N)nc2=O)[C@]1(C)O.Cl.Cl [VALOPICITABINE DIHYDROCHLORIDE]
